The values below come from US20080113344A1, “Methods and Compositions for the Response Prediction of Malignant Neoplasia to Treatment” (priority 2003, published 2008).

For this assay, the system named is breast cancer. Description: Retrospective clinical study of adjuvant tamoxifen treatment of breast cancer. Format: in vivo, human. Conditions: overexpression of PPARBP. The source says: In particular, elevated levels of the PPARBP gene and protein and the integrity of the telomeric hormone receptor region of the 17q21 ARCHEON, bearing THRA, NR1D1 and RARA, or its related regions on the other ARCHEONs are of importance for these therapeutic regimens. […] Overexpression of PPARBP enables activity of estrogen and progesteron receptors irrespective of a bound ligand. Therefore, the deregulation of the PPARBP results in the activity of these hormone receptors in the absence of the hormones and even in the presence of anti-hormones and thereby circumvents the anti tumor effect of anti hormonal strategies resulting in resistance of PPARBP overexpressing cells. In addition overexpression of hormone receptors other than estrogen receptor in tumor cells affects activity of estrogen or the respective anti-hormones by competition for dimerization partners, such as RXR, or transcriptional activator or repressor genes, such as CBP or NCOR. With regard to tamoxifen treatment this clearly diminishes the effect of the anti-hormone, as the pool of the transcriptional cofactors is reduced for the classical mode of action of tamoxifen within the nucleus.

The structures appear in SMILES notation.

For `CC/C(=C(\c1ccccc1)c1ccc(OCCN(C)C)cc1)c1ccccc1` [tamoxifen], the “overall survival of patients receiving adjuvant tamoxifen” value is given as “has impact on the overall survival”.
